Target: recombinant eIF4E (Homo sapiens (Human), UniProt P06730)
Assay: Fluorescence polarization competition assay for eIF4E binding potency
Settings: inhibition of eIF4E/EDA-m7GDP-ATTO-550 binding; calculated IC50 values, Table 4B; read-out: IC50
Method in brief: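 IC50 derived from fluorescence polarization over an 8-point, 3-fold compound series after 30 min room-temperature equilibration in the dark. Mix: eIF4E 75 nM pre-bound 5 min to 20 nM EDA-m^7GDP-ATTO-550; buffer 20 mM Tris pH 7.5, 100 mM NaCl, 1 mM DTT, 0.02% Tween-20; DMSO 1%.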

recombinant eIF4E, sequence (P06730 whole entry): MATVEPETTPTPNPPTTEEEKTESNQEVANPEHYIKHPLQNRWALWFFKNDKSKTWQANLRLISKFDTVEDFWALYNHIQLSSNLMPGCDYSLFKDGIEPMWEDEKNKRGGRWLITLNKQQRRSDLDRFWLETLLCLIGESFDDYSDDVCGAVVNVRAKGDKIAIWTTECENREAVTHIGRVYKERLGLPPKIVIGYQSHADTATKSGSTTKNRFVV

IC50	SMILES
31.6 nM	Cc1cc(-c2cc(Cl)ccc2OCCn2c(C)nc3cc(C(F)(F)F)c(N(C)C)c(C#N)c3c2=O)c2scc(C(=O)O)c2n1 [compound 1619]
17.9 nM	COC(=O)c1csc2c(-c3cc(Cl)ccc3OCCn3c(C)nc4cnc(N(C)C5CCN(CC(F)(F)F)CC5)c(C#N)c4c3=O)ccnc12 [compound 1620]
72.1 nM	Cc1cc(-c2cc(Cl)ccc2OCCn2c(C)nc3c(C)nc(CN(C)C)c(C#N)c3c2=O)c2scc(C(=O)O)c2n1 [compound 1621]
17.3 nM	Cc1cc(-c2cc(Cl)ccc2OCCn2c(C)nc3c(C)nc(-c4c(F)cccc4F)c(C#N)c3c2=O)c2scc(C(=O)O)c2n1 [compound 1622]
4.17 nM	Cc1nc(N2CCN(CCF)CC2)c(C#N)c2c(=O)n(CCOc3ccc(Cl)cc3-c3ccnc4c(C(=O)O)csc34)c(C)nc12 [compound 1624]
30.3 nM	Cc1nc2cnc(C3=CCNCC3)c(C#N)c2c(=O)n1CCOc1ccc(Cl)cc1-c1ccnc2c(C(=O)O)csc12 [compound 1626]
16.1 nM	Cc1cc(-c2cc(Cl)ccc2OCCn2c(C)nc3cnc(N[N+](C)(C)C)c(C#N)c3c2=O)c2scc(C(=O)O)c2n1 [compound 1631]
52.6 nM	Cc1nc2cnc(N3CC4(CNC4)C3)c(C#N)c2c(=O)n1CC#Cc1ccc(Cl)cc1-c1ccnc2c(C(=O)O)csc12 [compound 1633]
17.4 nM	Cc1nc2cnc(N3CC4(CCN4CC(F)F)C3)c(C#N)c2c(=O)n1CCOc1ccc(Cl)cc1-c1ccnc2c(C(=O)O)csc12 [compound 1634]
21.5 nM	Cc1nc2cnc(N3CC4(CCN4CC(C)(C)F)C3)c(C#N)c2c(=O)n1CCOc1ccc(Cl)cc1-c1ccnc2c(C(=O)O)csc12 [compound 1635]
17.7 nM	Cc1nc2cnc(N3CCN(C(C)C)CC3)c(C#N)c2c(=O)n1CC#Cc1ccc(Cl)cc1-c1ccnc2c(C(=O)O)csc12 [compound 1637]
38.8 nM	Cc1nc2cnc(N3CCN(C4CC4(C)C)CC3)c(C#N)c2c(=O)n1CCOc1ccc(Cl)cc1-c1ccnc2c(C(=O)O)csc12 (stereo not shown) [compound 1638]
18.9 nM	Cc1nc2cnc(N3CCN(C4(C)CC(F)(F)C4)CC3)c(C#N)c2c(=O)n1CCOc1ccc(Cl)cc1-c1ccnc2c(C(=O)O)csc12 [compound 1641]
24.5 nM	Cc1nc2cnc(N3CCN([C@H]4C[C@@H]4C(F)(F)F)CC3)c(C#N)c2c(=O)n1CCOc1ccc(Cl)cc1-c1ccnc2c(C(=O)O)csc12 [compound 1642]
18.8 nM	Cc1nc2cnc(N3CCN(C4(CC(F)F)CC4)CC3)c(C#N)c2c(=O)n1CCOc1ccc(Cl)cc1-c1ccnc2c(C(=O)O)csc12 [compound 1643]
14.5 nM	Cc1nc2cnc(N3CC[N+](CCO)(C(F)F)CC3)c(C#N)c2c(=O)n1CC#Cc1ccc(Cl)cc1-c1ccnc2c(C(=O)O)csc12 [compound 1644]
23.2 nM	Cc1nc2cnc(N3CC4CC3CN4C)c(C#N)c2c(=O)n1CCOc1ccc(Cl)cc1-c1ccnc2c(C(=O)O)csc12 (stereo not shown) [compound 1645]
26.3 nM	Cc1nc2cnc(N3CCN(C4CC4)C4(CC4)C3)c(C#N)c2c(=O)n1CCOc1ccc(Cl)cc1-c1ccnc2c(C(=O)O)csc12 [compound 1646]
19.6 nM	Cc1nc2cnc(N3CCC4(CC3)CCN4CC(F)F)c(C#N)c2c(=O)n1CCOc1ccc(Cl)cc1-c1ccnc2c(C(=O)O)csc12 [compound 1647]
18.3 nM	Cc1nc2cnc(N3CCCC4(CCN4CC(F)F)C3)c(C#N)c2c(=O)n1CCOc1ccc(Cl)cc1-c1ccnc2c(C(=O)O)csc12 (stereo not shown) [compound 1649]
26.5 nM	Cc1nc2cnc(N(C)C3CCN(CCF)CC3)c(C#N)c2c(=O)n1CC#Cc1ccc(Cl)cc1-c1ccnc2c(C(=O)O)csc12 [compound 1653]
21 nM	Cc1nc2cnc(N(C)C3CCN(CC(C)F)CC3)c(C#N)c2c(=O)n1CCOc1ccc(Cl)cc1-c1ccnc2c(C(=O)O)csc12 (stereo not shown) [compound 1654]
13.4 nM	Cc1nc2cnc(N(C)C3CCN(CC(C)(C)F)CC3)c(C#N)c2c(=O)n1CCOc1ccc(Cl)cc1-c1ccnc2c(C(=O)O)csc12 [compound 1655]
22.1 nM	Cc1nc2cnc(N(C)C3CCN(C(C)C(F)F)CC3)c(C#N)c2c(=O)n1CCOc1ccc(Cl)cc1-c1ccnc2c(C(=O)O)csc12 (stereo not shown) [compound 1662]
12.2 nM	Cc1nc2cnc(N(C)C3CCN(CC(F)(F)F)CC3)c(C#N)c2c(=O)n1CC#Cc1ccc(Cl)cc1-c1ccnc2c(C(=O)NS(=O)(=O)c3cn(C)cn3)csc12 [compound 1667]
5.67 nM	Cc1nc2cnc(N(C)C3CCN(CC(F)(F)F)CC3)c(C#N)c2c(=O)n1CC#Cc1ccc(Cl)cc1-c1ccnc2c(C(=O)NS(=O)(=O)c3ccnn3C)csc12 [compound 1668]

IC50	SMILES
9.17 nM	Cc1nc2cnc(N(C)C3CCN(CC(F)(F)F)CC3)c(C#N)c2c(=O)n1CC#Cc1ccc(Cl)cc1-c1ccnc2c(C(=O)NS(=O)(=O)CF)csc12 [compound 1669]
5.68 nM	Cc1nc2cnc(N(C)C3CCN(CC(F)(F)F)CC3)c(C#N)c2c(=O)n1CC#Cc1ccc(Cl)cc1-c1ccnc2c(C(=O)NS(=O)(=O)CC#N)csc12 [compound 1670]
4.14 nM	Cc1nc2cnc(N(C)C3CCN(CC(F)(F)F)CC3)c(C#N)c2c(=O)n1CC#Cc1ccc(Cl)cc1-c1ccnc2c(C(=O)NS(=O)(=O)CCC#N)csc12 [compound 1671]
13.2 nM	Cc1nc2c(c(=O)n1CC#Cc1ccc(Cl)cc1-c1ccnc3c(C(=O)NS(=O)(=O)CC(C)(C)C#N)csc13)C(C#N)=C(N(C)C1CCN(CC(F)(F)F)CC1)NC2 [compound 1672]
7.22 nM	Cc1nc2cnc(N(C)C3CCN(CC(F)(F)F)CC3)c(C#N)c2c(=O)n1CC#Cc1ccc(Cl)cc1-c1ccnc2c(C(=O)NS(=O)(=O)Cc3ccccn3)csc12 [compound 1673]
6.5 nM	Cc1nc2cnc(N(C)C3CCN(CC(C)(F)F)CC3)c(C#N)c2c(=O)n1CC#Cc1ccc(Cl)cc1-c1ccnc2c(C(=O)NS(=O)(=O)c3ccc(C(F)(F)F)nc3)csc12 [compound 1674]
4.11 nM	Cc1nc2cnc(N(C)C3CCN(CC(F)(F)F)CC3)c(C#N)c2c(=O)n1CC#Cc1ccc(Cl)cc1-c1ccnc2c(C(=O)NS(=O)(=O)c3cscn3)csc12 [compound 1675]
4.33 nM	Cc1nc2cnc(N(C)C3CCN(CC(C)(F)F)CC3)c(C#N)c2c(=O)n1CC#Cc1ccc(Cl)cc1-c1ccnc2c(C(=O)NS(=O)(=O)c3ccn(C)n3)csc12 [compound 1676]
12.9 nM	Cc1nc2cnc(N(C)C3CCN(CC(F)(F)F)CC3)c(C#N)c2c(=O)n1CC#Cc1ccc(Cl)cc1-c1ccnc2c(C(=O)NS(=O)(=O)C3CC(F)(F)C3)csc12 [compound 1677]
28 nM	Cc1cccc(S(=O)(=O)NC(=O)c2csc3c(-c4cc(Cl)ccc4C#CCn4c(C)nc5cnc(N(C)C6CCN(CC(C)(F)F)CC6)c(C#N)c5c4=O)ccnc23)n1 [compound 1678]
29.3 nM	Cc1nc2cnc(N(C)C3CCN(CC(C)(F)F)CC3)c(C#N)c2c(=O)n1CC#Cc1ccc(Cl)cc1-c1ccnc2c(C(=O)NS(=O)(=O)c3ccc(C(F)(F)F)cn3)csc12 [compound 1679]
23.3 nM	Cc1ccc(S(=O)(=O)NC(=O)c2csc3c(-c4cc(Cl)ccc4C#CCn4c(C)nc5cnc(N(C)C6CCN(CC(C)(F)F)CC6)c(C#N)c5c4=O)ccnc23)cn1 [compound 1680]
8.27 nM	COc1ccc(S(=O)(=O)NC(=O)c2csc3c(-c4cc(Cl)ccc4C#CCn4c(C)nc5cnc(N(C)C6CCN(CC(C)(F)F)CC6)c(C#N)c5c4=O)ccnc23)cn1 [compound 1681]
15.1 nM	Cc1cc(S(=O)(=O)NC(=O)c2csc3c(-c4cc(Cl)ccc4C#CCn4c(C)nc5cnc(N(C)C6CCN(CC(C)(F)F)CC6)c(C#N)c5c4=O)ccnc23)ccn1 [compound 1682]
18.3 nM	COc1cc(S(=O)(=O)NC(=O)c2csc3c(-c4cc(Cl)ccc4C#CCn4c(C)nc5cnc(N(C)C6CCN(CC(C)(F)F)CC6)c(C#N)c5c4=O)ccnc23)ccn1 [compound 1683]
12.7 nM	Cc1nc2cnc(N(C)C3C[C@H]4C[C@@H]3CN4CC(C)(F)F)c(C#N)c2c(=O)n1CCOc1ccc(Cl)cc1-c1ccnc2c(C(=O)O)csc12 (stereo partly shown) [compound 1688]
22.2 nM	Cc1nc2cnc(N(C)C3C[C@H]4C[C@@H]3CN4CC(C)(F)F)c(C#N)c2c(=O)n1CC#Cc1ccc(Cl)cc1-c1ccnc2c(C(=O)O)csc12 (stereo partly shown) [compound 1689]
27.4 nM	Cc1nc2cnc(N(C)[C@H]3[C@@H]4CC[C@H]3CN(CC(C)(F)F)C4)c(C#N)c2c(=O)n1CC#Cc1ccc(Cl)cc1-c1ccnc2c(C(=O)O)csc12 [compound 1690]
17.9 nM	Cc1nc2cnc(N(C)C3[C@@H]4C[C@H]3CN(CC(C)(F)F)C4)c(C#N)c2c(=O)n1CC#Cc1ccc(Cl)cc1-c1ccnc2c(C(=O)O)csc12 (stereo partly shown) [compound 1691]
6 nM	Cc1nc2cnc(N(C)C3CCN(CC(F)(F)C(F)F)CC3)c(C#N)c2c(=O)n1CC#Cc1ccc(Cl)cc1-c1ccnc2c(C(=O)NS(C)(=O)=O)csc12 [compound 1703]
6.54 nM	Cc1nc2cnc(N(C)C3CCN(CC(F)(F)C(F)F)CC3)c(C#N)c2c(=O)n1CC#Cc1ccc(Cl)cc1-c1ccnc2c(C(=O)NS(=O)(=O)C3COC3)csc12 [compound 1704]
4.8 nM	Cc1nc2cnc(N(C)C3CCN(CC(F)(F)C(F)F)CC3)c(C#N)c2c(=O)n1CC#Cc1ccc(Cl)cc1-c1ccnc2c(C(=O)NS(=O)(=O)c3ccncc3)csc12 [compound 1705]
12.1 nM	Cc1nc2cnc(N(C)C3CCN(CC(F)(F)C(F)F)CC3)c(C#N)c2c(=O)n1CC#Cc1ccc(Cl)cc1-c1ccnc2c(C(=O)NS(=O)(=O)c3ccccn3)csc12 [compound 1706]
15.7 nM	Cc1nc2cnc(N(C)C3CCN(CC(F)(F)C(F)F)CC3)c(C#N)c2c(=O)n1CC#Cc1ccc(Cl)cc1-c1ccnc2c(C(=O)NS(=O)(=O)c3cccnc3)csc12 [compound 1707]
16.2 nM	CCN(c1ncc2nc(C)n(CC#Cc3ccc(Cl)cc3-c3ccnc4c(C(=O)NS(=O)(=O)c5ccncc5)csc34)c(=O)c2c1C#N)C1CCN(CC(F)(F)C(F)F)CC1 [compound 1708]

SMILES	IC50
Cc1nc2cnc(N3CCC4(CC3)CN(CC(F)F)C4)c(C#N)c2c(=O)n1CC#Cc1ccc(Cl)cc1-c1ccnc2c(C(=O)NS(C)(=O)=O)csc12 [compound 1648]	13.3 nM

Reference: patent US11286268B1, “EIF4E-inhibiting compounds and methods” (EFFECTOR THERAPEUTICS, INC., priority 2019, dated 2022)
